The source of these data is patent US9006170B2, “Compositions for elastogenesis and connective tissue treatment” (Human Matrix Sciences, LLC, priority 2004, dated 2015).

Read-outs that look alike come from different tables or passages of the source.

Experiment [1] deals with human dermal fibroblast cultures. Briefly: Immunohistochemical analysis of elastin synthesis in human dermal fibroblast cultures. The class given is cell-based. As to conditions: for synthesis of elastin (elastic fibers detected by immunocytochemistry): all concentrations 0.5 μM-2.0 μM, fibroblasts from various aged subjects; for deposition of extracellular matrix components, elastin and collagen type I: human dermal fibroblast cultures. The text has this:
Refer to FIG. 1, which illustrates both the elastic fibers detected by immunocytochemistry and the morphometric analysis of elastic fibers. MnCl2 and Mn-PCA were introduced into the fibroblasts derived from the various aged subjects over various concentrations.

Experiment [2] concerns elastin mRNA. Briefly: Northern blot analysis of elastin mRNA levels in human aortic smooth muscle cells. Type of experiment: cell-based. How it is done: (§1) Smooth muscle cells were isolated in the following manner porcine thoracic aortas and coronary arteries were dissected from young pigs obtained from local slaughterhouse. Passage two of human aortic smooth muscle cells from a normal subject was purchased from Clonetics Inc. (San Diego, Calif.). Arterial tissues were diced and explanted in a-MEM (modified Eagle's medium) supplemented with 10% FBS, 25 mM HEPES, L-glutamine, and […]. Tissue samples were diced and cells isolated by collagenase and elastase digestion as previously described.
(§2) Porcine thoracic aortas and coronary arteries were dissected from young pigs obtained from local slaughterhouse. Passage two of human aortic smooth muscle cells from a normal subject was purchased from Clonetics Inc. (San Diego, Calif.). Arterial tissues were diced and explanted in a-MEM (modified Eagle's medium) supplemented with 10% FBS, 25 mM HEPES, L-glutamine, and […]. Tissue samples were diced and cells isolated by collagenase and elastase digestion as previously described. Cells were maintained in a-MEM supplemented with 5% FBS and were routinely passaged by trypsinization. All the experiments were performed using SMC at passage 2-5. […] Aortic and coronary artery SMC's were plated at the initial density 50,000 dish, either directly on plastic or on coverslips, and maintained for 1-2 days until confluency. Cultures were then divided into experimental groups and maintained in the presence and absence of experimental reagents for 7 days. Fresh media were added at days 3 and 5.

For experiment [3], the system named is elastin mRNA. Briefly: One-step RT-PCR of elastin and β-actin mRNA.
Protocol: Total RNA was extracted using the RNeasy Mini Kit, according to manufacturers instructions, and 1 μM of total RNA was added to each one step RT-PCR (Qiagen OneStep RT-PCR Kit) and reactions were set up according to manufacturers instructions in a total volume of 25 μl. The reverse transcription step was performed for elastin and β-actin reactions at 50 ° C. for 30 minutes followed by 15 minutes at 95 ° C.
5 μl samples of the elastin and β-actin PCR products from each reaction were ran on a 2% agarose gel and post-stained with ethidium bromide. The amount of elastin mRNA was standardized relative to the amount of β-actin mRNA.
Experiment [4] concerns normal human skin fibroblasts. The experiment is described as follows: Quantitative assay of insoluble elastin ([3H]-valine metabolic labeling) in fibroblast cultures. The class given is cell-based. The conditions noted are these: for reversal of the inhibitory effect of 200 μM iron treatment on elastin deposition: antioxidant applied with 200 μM of iron.
Experiment [5] concerns human skin. As to conditions: 10 μM MnSO4 or 20 μM FAC, 7 days; for elastic fibers (Movat's Pentachrome, ×400): person. The text has this: Materials and Methods. Organ cultures of explants were derived from surgical biopsies of human skin. […] All organ cultures were fixed in 1% buffered formalin and their transversal histological sections were stained with Movat pentachrome method to visualize major components of extracellular matrix, including elastic fibers.

Experiment [6] deals with serine proteinases. As to conditions: 2-200 μM iron.
For experiment [7], the system named is elastin mRNA. As to conditions: 24 hours. How it is done:
(§3) The intensity of elastin message signal detected by Northern blotting was assessed by densitometry after normalization to GAPDH message levels and the corresponding values are shown in the bar graph in arbitrary units. Elastin mRNA levels assessed by TaqMan real time PCR analysis were normalized to the corresponding levels of GAPDH mRNA and expressed as a percentage of untreated control values.

Experiment [8] deals with normal human skin fibroblasts. As to conditions: for elastin deposition (immunostaining): 3 days.
Experiment [9] relates to normal human skin fibroblasts. As to conditions: 3 hours.
Protocol: Assays of Intracellular ROS levels. […] This probe passively diffuses into the cell interior and only upon oxidation it releases a fluorescent product that can be visualized under fluorescent microscope or captured by flow cytophotometry, when it is excited at 480 nm. To measure intracellular ROS production normal human skin fibroblasts were plated on glass coverslips in 35 mm dishes (50,000 cells/dish) and grown to confluency. The cells were then washed with PBS and incubated with or without 10 μM of CM-H2DCFDA for 30 minutes in fresh media. The cells were then washed again in PBS and incubated with new media in the presence or absence of FAC (2-400 μM) for 3 additional hours. The cells were then washed twice with PBS before being mounted to the glass slides and the images were captured under a fluorescent microscope under identical parameters of contrast and brightness.
In addition, the quantification of this reaction was performed by flow cytometry (λ excitation 480 nm; λ emission 520 nm). Quadruplicate cultures of fibroblasts were preincubated with CM-H2DCFDA and maintained in the presence or absence of FAC as described above. […] They were then collected by centrifugation (4° C., 1000 RPM for 3 minutes), washed in cold PBS and fixed with 4% formaldehyde for 10 minutes in the dark and analyzed by flow cytometry (FACSCalibur, Beckton Dickinson).
In experiment [10] the test system is elastin mRNA. How it is done:
(§4) Quantitative TaqMan RT-PCR. […] In order to assess the effect of iron on elastin mRNA stability parallel quadruplicate cultures were grown to confluency in 100 mm dishes. […] The reverse transcriptase reaction was performed using 1.5 μg of total RNA, oligo(dT)'s and the SuperScript First-Strand synthesis system (Invitrogen Life Technologies) according to manufacturer's instructions.
(§5) Elastin mRNA levels was measured by real-time quantitative PCR method performed on the ABI PRISM 7700 Sequence Detection System (Applied Biosystems, Foster City, Calif.). For each treatment two distinct amplifications were carried out in parallel in order to amplify elastin cDNA and GAPDH cDNA. The amplification reactions were performed in 25 μl volumes containing 30 ng of cDNA per treatment in triplicate, 12.5 μl of 2× TaqMan Universal PCR Master Mix (Applied Biosystems), and 1.25 μl of 20× Assays-on-Demand Gene Expression probe for elastin (Applied Biosystems) or TaqMan GAPDH probe (Applied Biosystems). Elastin mRNA levels from each treatment was normalized to the corresponding amount of GAPDH mRNA levels. Water controls and samples without PCR mixtures were set up to eliminate the possibility of significant DNA contamination. Final results were expressed as the mean of two independent experiments.
as §3

The subject of experiment [11] is elastin mRNA. As to conditions: 60 μM DRB. How it is done:
as §4, §5
Since steady-state mRNA levels reflect the balance between transcription efficiency and message decay, we further studied whether fluctuations in iron concentration may affect elastin mRNA stability. […] At indicated time points total RNA was extracted and subjected to quantitative TaqMan RT-PCR analysis. The results are expressed as the mean±SD from two separate experiments conducted in quadruplicate cultures.

Experiment [12] has as its system normal human skin fibroblasts.
Protocol: Normal human skin fibroblasts were grown to confluency in 35 mm culture dishes (100,000 cells/dish) in quadruplicates. Then, 2 μCi of [^3H]-valine/ml of fresh media was added to each dish, along with or without 2, 20, 100, 200 μM of FAC. […] The cells were extensively washed with PBS and the soluble proteins present in the intracellular compartments were extracted overnight at 4° C. with 0.1 M acetic acid in the presence of proteinase inhibitors. After centrifugation the supernatants were pre-cleaned by 30 minutes incubation with 50 p. […] The protein A-containing beads were sedimented by centrifugation; washed with immunoprecipitation buffer, mixed with scintillation fluid and counted. […] The resulting pellets containing the insoluble elastin were then solubilized by boiling in 200 μl of 5.7 N HCl for 1 hour, and the aliquots were mixed in scintillation fluid and counted. […] Final results reflecting amounts of metabolically labeled insoluble elastin in individual cultures were normalized per their DNA content and expressed as CPM/1 DNA. […] The conditioned media was then removed and the cell layers were washed and incorporation of [^3H]-valine into the insoluble elastin was assessed as described above.
For experiment [13], the system named is normal human skin fibroblasts. How it is done:
Since the net production of elastic fibers depend on the coordinated expression of multiple factors, the expression of three major factors facilitating elasogenesis by immunoflourecent microscopy after exposure of normal human skin fibroblasts to low (20 μM) and high (200 μM) iron concentrations was tested.
The source holds these as a separate data set.

Experiment [14] deals with normal human skin fibroblasts. How it is done: Assessment of Cell Proliferation. Normal human skin fibroblasts were suspended in DMEM containing 10% FBS and plated in 35 mm culture dishes (100,000 cells/dish) in quadruplicates. […] These cultures were then washed in PBS and treated with cold 5% trichloroacetic acid twice for 10 minutes at 4° C. For 30 minutes, 0.5 ml of 0.3 N NaOH was added to all dishes, and 200 μl aliquots of each culture were mixed with scintillation fluid and counted.
The source holds these as a separate data set.

Experiment [15] has as its system human aortic smooth muscle cells. Briefly: Metabolic labeling of newly synthesized insoluble elastin by human aortic smooth muscle cells. Type of experiment: cell-based. How it is done: as §1
as §2, with “Cultures were then divided into experimental groups and maintained in the presence and absence of experimental reagents for 7 days. Fresh media were added at days 3 and 5.” left out

The test system of experiment [16] is human dermal fibroblast cultures. The conditions noted are these: immunohistochemistry, versus control.
Protocol: In some experiments the serum free medium was also used.
The above prepared fibroblasts and smooth muscle cells were cultured in the presence or absence of (0.5-5 μM) of a manganese salt. Deposition of extracellular matrix components, elastin and collagen type I was assessed in 5-10 days old cultures by immunohistochemistry with a panel of specific antibodies.
The subject of experiment [17] is human dermal fibroblasts. Briefly: Cellular proliferation of human dermal fibroblasts (total DNA content and [3H]-thymidine incorporation). As to conditions: person. Type of experiment: cell-based. From the text:
Manganese compositions induce cellular proliferation.
(Dividing cells build labelled thymidine or BrdU into new DNA.)

The mark [18] stands for this setting: equimolar (20 μM) ferric iron and DFO.

Regarding manganese chloride [MnCl2], in [1], the “synthesis of elastin (elastic fibers detected by immunocytochemistry)” value is reported as “induce synthesis of elastin”; the “deposition of extracellular matrix components, elastin and collagen type I” value is “induced”. In addition, the “transcription of the elastin gene (elastin mRNA levels)” value (from here on “transcription of the elastin gene”) in [2] is recorded as “can induce transcription of the elastin gene”.
For the compound `CC(=O)N(O)CCCCCNC(=O)CCC(=O)N(O)CCCCCNC(=O)CCC(=O)N(O)CCCCCN` [DFO, desferrioxamine], in experiment [3] (20 μM of DFO, compared to untreated control), the “elastin mRNA levels” value was “significantly reduced”. For the same compound, the “iron induced increase in elastin mRNA levels” value in experiment [3] (setting [18]) is on record as “abolished the iron induced increase”. Besides, the “iron induced increase in elastin deposition” value in [4] (setting [18]) is “abolished the iron induced increase”.
For the compound catalase, the “reversal of the inhibitory effect of 200 μM iron treatment on elastin deposition” value in experiment [4] is “not observed”.
Regarding `O=S(=O)([O-])[O-].[Mn+2]` [MnSO4, manganese sulfate], in [5], the “agitation and migration of stratum basale-derived cells with fibroblastic phenotype” value is “higher than control level of agitation and migration of stratum basale-derived cells with fibroblastic phenotype”; the “infiltrating activated (differentiating) cells (×600)” value is “seem to contain more such activated cells”; the “elastic fibers (Movat's Pentachrome, ×400)” value is given as “stimulated production of long elastic fibers primarily running perpendicular to the epidermis”. Besides, the “transcription of the elastin gene” value in [2] is “can induce transcription of the elastin gene”.
ferric ammonium citrate [FAC]: the “elastolytic activity of serine proteinases” value in [6] is “did not stimulate elastolytic activity of serine proteinases”. For the same compound, the “elastin mRNA levels (Northern blot, corrected for GAPDH)” value in experiment [7] (200 μM of iron) is listed as “returned back to control values”. Also, the “elastin mRNA levels (Northern blot, corrected for GAPDH)” value in [7] (2 and 20 μM iron) was “dose-dependent increase in elastin mRNA levels”. For the same compound, in experiment [5], the “agitation and migration of stratum basale-derived cells with fibroblastic phenotype” value was “higher than control level of agitation and migration of stratum basale-derived cells with fibroblastic phenotype”; the “infiltrating activated (differentiating) cells (×600)” value is “seem to contain more such activated cells”; the “elastic fibers (Movat's Pentachrome, ×400)” value is given as “induced deposition of shorter elastic fibers primarily running parallel to the epidermis”. Further, the “elastin deposition (immunostaining)” value in experiment [8] (100 μM iron) is given as “did not induce better elastin deposition then treatment with 20”. Further, in experiment [8] (200 μM of iron), the “elastin deposition (immunostaining)” value is reported as “dragged elastin deposition back to the control levels”. In addition, in experiment [8] (2 and 20 μM of iron, 3-day-long treatment), the “production of elastic fibers (immunostaining)” value is on record as “significantly increased the production of elastic fibers over control levels”. Also, the “intracellular ROS production” value in experiment [9] (2-40 μM of iron) is listed as “produced the same amount of ROS as untreated controls”. In addition, in [9] (100-400 μM iron), the “intracellular ROS production” value was “dose dependant increase in ROS production”. Besides, the “increase in elastin mRNA levels” value in experiment [10] (20 μM of iron, 24 hours) is reported as roughly 3 fold. For the same compound, in experiment [10] (200 μM of iron, 24 hours), the “tropoelastin mRNA (real-time RT-PCR)” value is listed as “significant reduction in tropoelastin mRNA”. In addition, the “increase in the elastin mRNA level” value in experiment [10] (low iron concentrations (2-20 μM)) is on record as 2-3 fold. Besides, the “elastin mRNA half-life” value in [11] (20 μM iron) was roughly 16 h. In experiment [11] (200 μM iron), the “decrease in elastin mRNA level” value is on record as “about 2.5 fold” and the “elastin mRNA half-life” value was roughly 6 h. The “[3H]-valine-labeled tropoelastin synthesis” value in experiment [12] (2 and 20 μM iron, 72 hours) is “syntesize more [^3H]-valine-labeled tropoelastin than untreated counterparts”. Besides, in [12] (100 and 200 μM iron versus 20 μM), the tropoelastin production result was “lower tropoelastin production as compared to those treated with 20 μM”. For the same compound, in [13], the “immunodetectable levels of elastin binding protein (EBP)” value is recorded as “not changed”, the “immunodetectable levels of fibrillin-1” value is recorded as “not changed” and the “immunodetectable levels of lysyl oxidase” value is given as “not changed”. Also, in [14] (high doses of iron (100 μM and 200 μM), 72 hours, listed as iron), the “[3H]-thymidine incorporation (proliferation rate)” value is “proliferate with a significantly higher rate than untreated cells”. In experiment [14] (low iron concentrations (lower than 25 μM)), the cellular proliferation rate result is listed as “did not cause any increase in cellular proliferation rate”.
Consider `CC1(C)CC(O)CC(C)(C)N1[O]` [Tempol], for which the “reversal of the inhibitory effect of 200 μM iron treatment on elastin deposition” value in [4] was “not observed”.
Regarding “manganese salt of L-Pyrrolidone Carboxylic Acid [Mn-PCA]”, the “increase in elastin synthesis over the control” value in [15] is recorded as “two-fold”. In experiment [1], the “synthesis of elastin (elastic fibers detected by immunocytochemistry)” value was “induce synthesis of elastin”; the “deposition of extracellular matrix components, elastin and collagen type I” value was “induced”. Moreover, in experiment [2], the “more elastin transcription over the control” value was roughly 66% and the “transcription of the elastin gene” value is reported as “can induce transcription of the elastin gene”. Besides, the “deposition of collagen type I” value in [16] was “increased deposition in collagen type I”. Besides, in [17], the dermal fibroblast proliferation result is “stimulate dermal fibroblast proliferation”.
